Test results published in patent publication US9936701B2, “Herbicidal compounds” (Syngenta Participations AG, priority 2013, dated 2018).

How the values were obtained:
[1] = tested on: a variety of test species; test: Pre-emergence herbicidal activity (glasshouse, sprayed one day after sowing, evaluated after 13 days); format: in vivo; design: key: 5=total damage to plant; 0=no damage to plant; conditions: application pre-emergence, rate 1000 g/Ha, scale 0-5
Method in brief: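 Damage rated 13 days post-treatment on a 0-5 scale, 5 meaning total plant damage. Pots were sprayed pre-emergence, one day after sowing, with an acetone/water-derived aqueous spray containing 0.5% Tween 20. Plants grew under 14 h light, 65% humidity, 24/16 °C, watered twice daily.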

[2] = tested on: a variety of test species; test: Post-emergence herbicidal activity (glasshouse, sprayed after 8 days cultivation, evaluated after 13 days); format: in vivo; design: key: 5=total damage to plant; 0=no damage to plant; conditions: rate 1000 g/Ha, scale 0-5
Method in brief: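 Damage was rated 0-5 (5 = total) 13 days after a post-emergence spray of acetone/water (50:50) plus 0.5% Tween 20 formulation. Plants were sprayed at 8 days' growth and kept at 24/16° C, 14 h light, 65% humidity, watered twice daily.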

Structure (SMILES)	Pre-emergence herbicidal damage score, ABUTH [1]	Pre-emergence herbicidal damage score, ALOMY [1]	Pre-emergence herbicidal damage score, AMARE [1]	Pre-emergence herbicidal damage score, ECHCG [1]	Pre-emergence herbicidal damage score, SETFA [1]	Pre-emergence herbicidal damage score, ZEAMX [1]	ABUTH (Abutilon theophrasti) damage score, application post-emergence [2]	ALOMY (Alopecurus myosuroides) damage score, application post-emergence [2]	AMARE (Amaranthus retroflexus) damage score, application post-emergence [2]	ECHCG (Echinochloa crus-galli) damage score, application post-emergence [2]	SETFA (Setaria faberi) damage score, application post-emergence [2]	ZEAMX (Zea mays) damage score, application post-emergence [2]
CC1=C(Cl)C(=O)N(c2noc(C(C)(C)C)c2C#N)C1 [A102]	5	4	5	4	5	3	5	5	5	5	5	4
COC1=C(Cl)C(=O)N(c2cc(C(C)(C)C)on2)C1O (stereo not shown) [B1]	5	4	5	5	3	4	5	5	5	5	5	5
CNC1=C(Cl)C(=O)N(c2cc(C(C)(C)C)on2)C1O (stereo not shown) [C1]	3	2	5	4	4	1	5	4	5	5	4	1
CN(C)C1=C(Cl)C(=O)N(c2cc(C(C)(C)C)on2)C1O (stereo not shown) [C2]	1	1	–	2	1	1	5	4	5	5	4	3
C=C(C)CNC1=C(Cl)C(=O)N(c2cc(C(C)(C)C)on2)C1O (stereo not shown) [C3]	5	3	5	4	3	2	5	4	5	5	5	2
CC(C)(C)c1cc(N2C(=O)C(Cl)=C(NCC3CC3)C2O)no1 (stereo not shown) [C4]	5	2	5	5	4	3	5	5	5	5	5	4
C#CCNC1=C(Cl)C(=O)N(c2cc(C(C)(C)C)on2)C1O (stereo not shown) [C5, 1-(5-tert-butylisoxazol-3-yl)-4-chloro-2-hydroxy-3-(prop-2-ynylamino)-2H-pyrrol-5-one]	5	3	5	5	4	3	5	5	5	5	5	5
CC(C)(C)c1cc(N2C(=O)C(Cl)=C(N)C2O)no1 (stereo not shown) [C6, 3-amino-1-(5-tert-butylisoxazol-3-yl)-4-chloro-2-hydroxy-2H-pyrrol-5-one]	5	4	5	5	4	4	3	5	5	5	5	5
CC(C)(C)c1cc(N2C(=O)C(Cl)=C(NC3CCC3)C2O)no1 (stereo not shown) [C9]	0	0	3	0	0	0	0	0	2	0	0	0
CC(C)(C)CNC1=C(Cl)C(=O)N(c2cc(C(C)(C)C)on2)C1O (stereo not shown) [C10]	0	0	2	0	0	0	0	0	0	0	0	0
COCCNC1=C(Cl)C(=O)N(c2cc(C(C)(C)C)on2)C1O (stereo not shown) [C11]	4	3	5	4	4	2	5	4	5	5	5	1
CCOCCNC1=C(Cl)C(=O)N(c2cc(C(C)(C)C)on2)C1O (stereo not shown) [C12]	4	1	4	2	3	0	5	3	4	4	4	0
CC(=O)OC1C(N)=C(Cl)C(=O)N1c1cc(C(C)(C)C)on1 (stereo not shown) [C13]	5	4	5	5	4	4	5	5	5	5	5	5
COC1=C(C)CN(c2cc(C(C)(C)C)on2)C1=O [D9]	–	4	5	4	4	–	–	5	5	5	5	–
